Laboratory results published in patent publication US8299223B2, “Pseudoglycolipid and use thereof” (Riken, priority 2007, dated 2012).

Experiments:
[1] = test system: IFN-γ; assay: Experimental Example 1: IFN-γ content of plasma after intraperitoneal injection in C57BL/6 mouse (Cytometric bead array); format: in vivo; conditions: intraperitoneal 100, 10 or 1 μg/kg body weight, plasma 6, 12, 24, 36 and 48 hr after administration, FIG. 1
Description: (§1) Compound 11′ was dissolved in […] saline (manufactured by OTSUKA PHARMACEUTICAL CO., LTD) containing Tween 20 (Bio-Rad) and prepared to a dose of 100 μg/kg body weight, 10 μg/kg body weight or 1 μg/kg body weight C57BL/6 mouse (5 per group), and the compound 11′ solution (200 μL) was intraperitoneally injected.
(§2) α-GalCer was used as a control substance, and 200 μL of each α-GalCer solution prepared to a dose of 100 μg/kg body weight, 10 μg/kg body weight or 1 μg/kg body weight according to a similar method was intraperitoneally injected.
(§3) A group administered with a medium (200 μL of saline containing 0.5% Tween 20) was taken as a negative control. The blood (80 μL) was taken from the orbital plexus venosus immediately before administration and 3, 6, 12, 24, 36 and 48 hr after administration, and the plasma was prepared. The IL-4 content of plasma immediately before administration and 3, 6 and 12 hr after administration, as well as IFN-γ content of plasma immediately before administration and 6, 12, 24, 36 and 48 hr after administration were measured by Cytometric bead array system (BD Biosciences), which is one kind of the ELISA method. The measurement results of IFN-γ production amount are shown FIG. 1 and the measurement results of IL-4 production amount are shown in FIG. 2.

[2] = test system: IL-4; assay: Experimental Example 1: IL-4 content of plasma after intraperitoneal injection in C57BL/6 mouse (Cytometric bead array); format: in vivo; conditions: intraperitoneal 100, 10 or 1 μg/kg body weight, plasma 3, 6 and 12 hr after administration, FIG. 2
Description: as §1, §2, §3

[3] = test system: B16 melanoma; assay: Experimental Example 2: anti-liver metastasis effect, survival after intrasplenic transfer of B16 melanoma; format: in vivo, mouse; conditions: FIG. 3
Description: The following experiment was performed for the anti-liver metastasis effect.
The left side of mouse was opened under anesthesia, and the spleen was exposed. 1×10^6 B16 melanoma was intrasplenically transferred using a 1 mL syringe (TERUMO CORPORATION), maintained for 30 sec, and the blood vessel was sutured. The spleen was isolated and the peritoneal membrane was sutured with a surgical thread (No. 4, Alfresa Pharma Corporation), and the outer skin was joined with a surgical clip. After 3 hr from the cell transfer, α-GalCer and compound 11′ were administered each in an amount of 2, 0.2 or 0.02 μg per mouse from the tail vein and the survival rate of each group was examined.

[4] = test system: IFN-γ; assay: Experimental Example 3: human NKT cell proliferation and IFN-γ production induction, dendritic cells plus peripheral blood mononuclear cells, IFN-γ in culture supernatant; format: cell-based; conditions: as compared to α-GalCer and α-C-GalCer; for IFN-γ concentration of the culture supernatants: 3 days and 8 days later, FIG. 4 (a), (b); for selectivity of IFN-γ production induction: IFN-γ versus IL-4, FIG. 4 (a)-(d)
Description: (§4) The following experiment was performed for human NKT cell proliferation and IFN-γ production induction.
(§5) Monocytes were prepared from the peripheral blood of a healthy subject by anti-CD14 microbeads (Miltenyi Biotech), and dendritic cells were induced using GM-CSF and IL-4 (Peprotech). To the dendritic cells was added α-GalCer or synthetic glycolipid (α-C-GalCer, compound 11′, compound 51′), human peripheral blood mononuclear cell was added and the cells were cultured.
In this experiment, the IFN-γ concentration of the culture supernatants 3 days and 8 days later was measured. As a result, the concentration was very high when stimulated with compound 11′ and compound 51′ as compared to α-GalCer and α-C-GalCer (FIG. 4 (a), (b)).

[5] = test system: IL-4; assay: Experimental Example 3: dendritic cells plus human peripheral blood mononuclear cells, IL-4 in culture supernatant; format: cell-based; conditions: culture supernatants; as compared to α-GalCer and α-C-GalCer; FIG. 4
Description: as §4, §5

## CCCCCCCCCCCCCCCCCCCCCCCCCC(=O)N[C@@H](CO[C@H]1CC(CO)[C@H](O)C(O)C1O)[C@H](O)[C@H](O)CCCCCCCCCCCCCC (stereo partly drawn) [compound 11′, (2S,3S,4R)-1-(5a-carba-α-D-galactopyranosyloxy)-2-(hexacosanoylamino)-3,4-octadecanediol]
[1]
  IFN-γ production amount: preferentially produced IFN-γ
[2]
  IL-4 production amount: in a small amount
[3]; 2, 0.2 or 0.02 μg per mouse from the tail vein 3 hr after cell transfer, as compared to the non-treatment group and the α-GalCer administration group
  survival period: extended
[3]; administration of 0.2 and 0.02 μg per mouse, as compared to the α-GalCer administration group
  survival period: remarkable elongated
[4]
  IFN-γ concentration of the culture supernatants: very high
  selectivity of IFN-γ production induction: selectively induced IFN-γ production
[5]
  IL-4 concentration: almost the same

## CCCCCCCCCCCCCCCCCCCCCCCCCC(=O)N[C@@H](CO[C@H]1C[C@H](C)[C@H](O)[C@H](O)[C@H]1O)[C@H](O)[C@H](O)CCCCCCCCCCCCCC [compound 51′, (2S,3S,4R)-1-(5a-carba-α-D-fucopyranosyloxy)-2-(hexacosanoylamino)-3,4-octadecanediol]
[4]
  IFN-γ concentration of the culture supernatants: very high
  selectivity of IFN-γ production induction: selectively induced IFN-γ production
[5]
  IL-4 concentration: almost the same

## CCCCCCCCCCCCCCCCCCCCCCCCCC(=O)N[C@@H](COC1OC(CO)C(O)C(O)C1O)[C@H](O)[C@H](O)CCCCCCCCCCCCCC (stereo partly drawn) [α-GalCer, α-galactosylceramide, reference compound]
[1]
  IFN-γ production amount: in large amounts
[2]
  IL-4 production amount: in large amounts
